Values of other authors in patent US20200129491A1, “METHODS OF TREATING BRAIN TUMORS USING COMBINATION THERAPY” (AGIOS PHARMACEUTICALS, INC., priority 2017, published 2020).
Read-outs that look alike come from different tables or passages of the source.

How the values were obtained:
mIDH1 cells = settings: in vitro, mIDH1 glioma models; R. J. Molenaar et al., Cancer Research 75:4790-4802 (2015)
mIDH1-driven gliomas = settings: some model systems; D. Rohle et al. Science 340:626-630 (2013)
mutant IDH1 proteins [1] = settings: biochemical assays
mutant IDH1 proteins [2] = settings: cellular assays

| Structure (SMILES) | Sensitivity of mIDH1 cells to radiation therapy (mIDH1 cells) | Inhibition of mutant IDH1 (mIDH1) (mutant IDH1 (mIDH1)) | Growth of mIDH1-driven gliomas (mIDH1-driven gliomas) | Inhibition of mutant IDH1 proteins (mutant IDH1 proteins [1]) | Inhibition of mutant IDH1 proteins (mutant IDH1 proteins [2]) |
| --- | --- | --- | --- | --- | --- |
| Cc1ccccc1C(C(=O)NC1CCCCC1)N(C(=O)Cn1ccnc1C)c1cccc(F)c1 (centres unmarked) [AGI-5198] | desensitized to radiation therapy | inhibit | repress growth | – | – |
| N#Cc1ccnc(N2C(=O)CC[C@H]2C(=O)N(c2cncc(F)c2)[C@H](C(=O)NC2CC(F)(F)C2)c2ccccc2Cl)c1 [Ivosidenib, (S)—N—((S)-1-(2-Chlorophenyl)-2-(3,3-difluorocyclobutylamino)-2-oxoethyl)-1-(4-cyanopyridin-2-yl)-N-(5-fluoropyridin-3-yl)-5-oxopyrrolidine-2-carboxamide] | – | – | – | inhibitor of mutant IDH1 proteins | inhibitor of mutant IDH1 proteins |
